These molecules were tested on HBV rcDNA in HepDE19 cells (assay: HepDE19 assay with bDNA quantitation of HBV rcDNA). Conditions: HepDE19 assay, inhibition of rcDNA formation, bDNA quantitation; read-out: DE-19bDNA EC50.
Assay type: cell-based, hepatitis B virus
`CN(C(=O)c1cc2c(Cl)cc(F)cc2[nH]1)C1COCc2[nH]c(=O)c3cc(F)ccc3c21` (single isomer, unassigned) [Compound 439, 4-Chloro-6-fluoro-N-(8-fluoro-6-oxo-1,4,5,6-tetrahydro-2H-pyrano[3,4-c]isoquinolin-1-yl)-N-methyl-1H-indole-2-carboxamide] gave an EC50 of 20 nM. Work on `CN(C(=O)c1cc2c(Cl)cccc2[nH]1)C1CNCc2[nH]c(=O)c3cc(F)c(F)cc3c21` (single isomer, unassigned) [Compound 440, 4-Chloro-N-(8,9-difluoro-6-oxo-1,2,3,4,5,6-hexahydrobenzo[c][1,7]naphthyridin-1-yl)-N-methyl-1H-indole-2-carboxamide] yielded an EC50 of 2200 nM. Molecule `CN(C(=O)c1cc2c(Cl)cccc2[nH]1)C1CNCc2[nH]c(=O)c3cc(F)c(F)cc3c21` (single isomer, unassigned) [Compound 441, 4-Chloro-N-(8,9-difluoro-6-oxo-1,2,3,4,5,6-hexahydrobenzo[c][1,7]naphthyridin-1-yl)-N-methyl-1H-indole-2-carboxamide] has an EC50 of 20 nM. Work on `CN(C(=O)c1ccc2c(c1)CCC2)C1COCc2[nH]c(=O)c3cc(F)ccc3c21` (single isomer, unassigned) [Compound 442, N-(8-Fluoro-6-oxo-1,4,5,6-tetrahydro-2H-pyrano[3,4-c]isoquinolin-1-yl)-N-methyl-2,3-dihydro-1H-indene-5-carboxamide] yielded an EC50 of 19000 nM. `CN(C(=O)c1ccc2c(c1)CCC2)C1COCc2[nH]c(=O)c3cc(F)ccc3c21` (single isomer, unassigned) [Compound 443, N-(8-Fluoro-6-oxo-1,4,5,6-tetrahydro-2H-pyrano[3,4-c]isoquinolin-1-yl)-N-methyl-2,3-dihydro-1H-indene-5-carboxamide] was tested, and the EC50 was 640 nM. In the case of `CN(C(=O)c1ccc2scnc2c1)C1COCc2[nH]c(=O)c3cc(F)ccc3c21` (single isomer, unassigned) [Compound 444, N-(8-fluoro-6-oxo-1,4,5,6-tetrahydro-2H-pyrano[3,4-c]isoquinolin-1-yl)-N-methylbenzo[d]thiazole-5-carboxamide], the EC50 is reported as 12200 nM. For `CN(C(=O)c1ccc2scnc2c1)C1COCc2[nH]c(=O)c3cc(F)ccc3c21` (single isomer, unassigned) [Compound 445, N-(8-fluoro-6-oxo-1,4,5,6-tetrahydro-2H-pyrano[3,4-c]isoquinolin-1-yl)-N-methylbenzo[d]thiazole-5-carboxamide], the EC50 was 700 nM. Work on `CN(C(=O)c1ccc2ncsc2c1)C1COCc2[nH]c(=O)c3cc(F)ccc3c21` (single isomer, unassigned) [Compound 446, N-(8-fluoro-6-oxo-1,4,5,6-tetrahydro-2H-pyrano[3,4-c]isoquinolin-1-yl)-N-methylbenzo[d]thiazole-6-carboxamide] yielded an EC50 of 16000 nM. Molecule `CN(C(=O)c1ccc2ncsc2c1)C1COCc2[nH]c(=O)c3cc(F)ccc3c21` (single isomer, unassigned) [Compound 447, N-(8-fluoro-6-oxo-1,4,5,6-tetrahydro-2H-pyrano[3,4-c]isoquinolin-1-yl)-N-methylbenzo[d]thiazole-6-carboxamide] has an EC50 of 940 nM. In the case of `CN(C(=O)c1cc2sc(Cl)cc2[nH]1)C1CNCc2[nH]c(=O)c3cc(F)c(F)cc3c21` (single isomer, unassigned) [Compound 453, 2-chloro-N-(8,9-difluoro-6-oxo-1,2,3,4,5,6-hexahydrobenzo[c][1,7]naphthyridin-1-yl)-N-methyl-4H-thieno[3,2-b]pyrrole-5-carboxamide], the EC50 is reported as 2200 nM. For `CN(C(=O)c1cc2sc(Cl)cc2[nH]1)C1CNCc2[nH]c(=O)c3cc(F)c(F)cc3c21` (single isomer, unassigned) [Compound 454, 2-chloro-N-(8,9-difluoro-6-oxo-1,2,3,4,5,6-hexahydrobenzo[c][1,7]naphthyridin-1-yl)-N-methyl-4H-thieno[3,2-b]pyrrole-5-carboxamide], the EC50 was 20 nM. Work on `Cc1cccc2[nH]c(C(=O)N(C)C3CNCc4[nH]c(=O)c5cc(F)c(F)cc5c43)cc12` (single isomer, unassigned) [Compound 456, N-(8,9-difluoro-6-oxo-1,2,3,4,5,6-hexahydrobenzo[c][1,7]naphthyridin-1-yl)-N,4-dimethyl-1H-indole-2-carboxamide] yielded an EC50 of 2200 nM. Molecule `Cc1cccc2[nH]c(C(=O)N(C)C3CNCc4[nH]c(=O)c5cc(F)c(F)cc5c43)cc12` (single isomer, unassigned) [Compound 457, N-(8,9-difluoro-6-oxo-1,2,3,4,5,6-hexahydrobenzo[c][1,7]naphthyridin-1-yl)-N,4-dimethyl-1H-indole-2-carboxamide] has an EC50 of 10 nM. `Cc1cc(F)cc2[nH]c(C(=O)N(C)C3CNCc4[nH]c(=O)c5cc(F)c(F)cc5c43)cc12` (single isomer, unassigned) [Compound 458, N-(8,9-difluoro-6-oxo-1,2,3,4,5,6-hexahydrobenzo[c][1,7]naphthyridin-1-yl)-6-fluoro-N,4-dimethyl-1H-indole-2-carboxamide] gave an EC50 of 6600 nM. With `Cc1cc(F)cc2[nH]c(C(=O)N(C)C3CNCc4[nH]c(=O)c5cc(F)c(F)cc5c43)cc12` (single isomer, unassigned) [Compound 459, N-(8,9-difluoro-6-oxo-1,2,3,4,5,6-hexahydrobenzo[c][1,7]naphthyridin-1-yl)-6-fluoro-N,4-dimethyl-1H-indole-2-carboxamide] the EC50 was 10 nM. In the case of `CN(C(=O)c1cc2c(Cl)cc(F)cc2[nH]1)C1CNCc2[nH]c(=O)c3cc(F)c(F)cc3c21` (single isomer, unassigned) [Compound 460, 4-chloro-N-(8,9-difluoro-6-oxo-1,2,3,4,5,6-hexahydrobenzo[c][1,7]naphthyridin-1-yl)-6-fluoro-N-methyl-1H-indole-2-carboxamide], the EC50 is reported as 11200 nM. Work on `CN(C(=O)c1cc2c(Cl)cc(F)cc2[nH]1)C1CNCc2[nH]c(=O)c3cc(F)c(F)cc3c21` (single isomer, unassigned) [Compound 461, 4-chloro-N-(8,9-difluoro-6-oxo-1,2,3,4,5,6-hexahydrobenzo[c][1,7]naphthyridin-1-yl)-6-fluoro-N-methyl-1H-indole-2-carboxamide] yielded an EC50 of 30 nM. For `CN(C(=O)c1ccc2ncsc2c1)C1CNCc2[nH]c(=O)c3cc(F)c(F)cc3c21` (single isomer, unassigned) [Compound 465, N-(8,9-difluoro-6-oxo-1,2,3,4,5,6-hexahydrobenzo[c][1,7]naphthyridin-1-yl)-N-methylbenzo[d]thiazole-6-carboxamide], the EC50 was 3200 nM. Molecule `CN(C(=O)c1cc2ccccc2[nH]1)C1CCCc2[nH]c(=O)c3cc(F)c(F)cc3c21` (single isomer, unassigned) [Compound 466, N-(8,9-Difluoro-6-oxo-1,2,3,4,5,6-hexahydrophenanthridin-1-yl)-N-methyl-1H-indole-2-carboxamide] has an EC50 of 2100 nM. With `CN(C(=O)c1cc2ccccc2[nH]1)C1CCCc2[nH]c(=O)c3cc(F)c(F)cc3c21` (single isomer, unassigned) [Compound 467, N-(8,9-Difluoro-6-oxo-1,2,3,4,5,6-hexahydrophenanthridin-1-yl)-N-methyl-1H-indole-2-carboxamide] the EC50 was 10 nM. In the case of `CN(C(=O)c1ccc2cn[nH]c2c1)C1COCc2[nH]c(=O)c3cc(F)ccc3c21` (single isomer, unassigned) [Compound 470, N-(8-fluoro-6-oxo-1,4,5,6-tetrahydro-2H-pyrano[3,4-c]isoquinolin-1-yl)-N-methyl-1H-indazole-6-carboxamide], the EC50 is reported as 1100 nM. Work on `CN(C(=O)c1ccc2c(c1)CCC2)C1CNCc2[nH]c(=O)c3cc(F)c(F)cc3c21` (single isomer, unassigned) [Compound 471, N-(8,9-difluoro-6-oxo-1,2,3,4,5,6-hexahydrobenzo[c][1,7]naphthyridin-1-yl)-N-methyl-2,3-dihydro-1H-indene-5-carboxamide] yielded an EC50 of 8700 nM. `CN(C(=O)c1ccc2c(c1)CCC2)C1CNCc2[nH]c(=O)c3cc(F)c(F)cc3c21` (single isomer, unassigned) [Compound 472, N-(8,9-difluoro-6-oxo-1,2,3,4,5,6-hexahydrobenzo[c][1,7]naphthyridin-1-yl)-N-methyl-2,3-dihydro-1H-indene-5-carboxamide] was tested, and the EC50 was 40 nM. With `CN(C(=O)c1cc2ccccc2[nH]1)C1CCCc2[nH]c(=O)c3cc(F)ccc3c21` (single isomer, unassigned) [Compound 475, N-(8-Fluoro-6-oxo-1,2,3,4,5,6-hexahydrophenanthridin-1-yl)-N-methyl-1H-indole-2-carboxamide] the EC50 was 1800 nM. Work on `CN(C(=O)c1cc2ccccc2[nH]1)C1CCCc2[nH]c(=O)c3cc(F)ccc3c21` (single isomer, unassigned) [Compound 476, N-(8-Fluoro-6-oxo-1,2,3,4,5,6-hexahydrophenanthridin-1-yl)-N-methyl-1H-indole-2-carboxamide] yielded an EC50 of 20 nM.

Same assay, conditions: Hepatitis B virus, HepDE19, HepDE19 assay, inhibition of rcDNA formation, bDNA quantitation; read-out: DE-19bDNA EC50
Work on `CN(C(=O)c1ccc2[nH]ncc2c1)C1COCc2[nH]c(=O)c3cc(F)ccc3c21` (single isomer, unassigned) [Compound 449, N-(8-fluoro-6-oxo-1,4,5,6-tetrahydro-2H-pyrano[3,4-c]isoquinolin-1-yl)-N-methyl-1H-indazole-5-carboxamide] yielded an EC50 of 5600 nM. Molecule `CN(C(=O)c1ccc2scnc2c1)C1CNCc2[nH]c(=O)c3cc(F)c(F)cc3c21` (single isomer, unassigned) [Compound 463, N-(8,9-difluoro-6-oxo-1,2,3,4,5,6-hexahydrobenzo[c][1,7]naphthyridin-1-yl)-N-methylbenzo[d]thiazole-5-carboxamide] has an EC50 of 2000 nM. With `CN(C(=O)c1ccc2cn[nH]c2c1)C1COCc2[nH]c(=O)c3cc(F)ccc3c21` (single isomer, unassigned) [Compound 469, N-(8-fluoro-6-oxo-1,4,5,6-tetrahydro-2H-pyrano[3,4-c]isoquinolin-1-yl)-N-methyl-1H-indazole-6-carboxamide] the EC50 was 2200 nM. In the case of `CN(C(=O)c1ccc2[nH]ncc2c1)C1CNCc2[nH]c(=O)c3cc(F)c(F)cc3c21` (single isomer, unassigned) [Compound 474, N-(8,9-difluoro-6-oxo-1,2,3,4,5,6-hexahydrobenzo[c][1,7]naphthyridin-1-yl)-N-methyl-1H-indazole-5-carboxamide], the EC50 is reported as 3800 nM.

Reference: patent US20240228504A1, “SUBSTITUTED TRICYCLIC AMIDES, ANALOGUES THEREOF, AND METHODS USING SAME” (Arbutus Biopharma Corporation, priority 2020, published 2024)
